Measured values as given in patent publication US12286442B2, “Methods and materials for increasing transcription factor eb polypeptide levels” (University of Pittsburgh—Of the Commonwealth System of …, priority 2019, dated 2025).

test system: BEAS-2B cells; experiment: Toxicity: compound concentration needed to induce greater than 50 percent of cell loss; type: cell-based, human; settings: 18 hours incubation
In short: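 BEAS-2B cells stably expressing TFEB-EGFP treated with serial compound dilutions for 18 h, then PFA-fixed, DAPI-stained and imaged. Toxicity scored as the concentration causing >50% cell loss, binned as ≥25 μM, <25 and >1 μM, or ≤1 μM ("+++").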

| SMILES | toxicity (compound concentration needed to induce greater than 50 percent of cell loss) |
| --- | --- |
| CCc1nc2ccc(Nc3nc(-c4ccncc4)nc4ccc(OC)cc34)cc2s1 [Compound 149] | ++ (cell loss of greater than 50 percent at a concentration less than 25 μM and greater than 1 μM was represented as) |
| Cc1nc2cc(Nc3nc(-c4ccncc4)nc4ccccc34)ccc2o1 [Compound 37] | + (cell loss of greater than 50 percent at a concentration that equals or is greater than 25 μM was represented as) |
| c1ccc2c(Nc3ccc4[nH]ncc4c3)nc(C3CCNCC3)nc2c1 [Compound 76] | + (cell loss of greater than 50 percent at a concentration that equals or is greater than 25 μM was represented as) |
| Cc1cc2cc(Nc3nc(-c4ccncc4)nc4ccccc34)ccc2[nH]1 [Compound 62] | +++ (cell loss of greater than 50 percent at a concentration that equals or is less than 1 μM was represented as “+++.”) |
| c1cnc2c(Nc3ccc4[nH]ccc4c3)nc(-c3ccncc3)nc2c1 [Compound 83] | + (cell loss of greater than 50 percent at a concentration that equals or is greater than 25 μM was represented as) |
| COc1ccc2nc(-c3ccncc3)nc(Nc3ccc4nc(C(C)C)sc4c3)c2c1 [Compound 364] | + (cell loss of greater than 50 percent at a concentration that equals or is greater than 25 μM was represented as) |
| c1cnc2nc(-c3ccncc3)nc(Nc3ccc4[nH]ncc4c3)c2c1 [Compound 80] | + (cell loss of greater than 50 percent at a concentration that equals or is greater than 25 μM was represented as) |
| CC(C)c1nc2ccc(Nc3nc(-c4ccncc4)nc4ccncc34)cc2s1 [Compound 120] | + (cell loss of greater than 50 percent at a concentration that equals or is greater than 25 μM was represented as) |
| c1cnc2cc(-c3ccncc3)nc(Nc3ccc4nc(C5CCC5)sc4c3)c2c1 [Compound 402] | + (cell loss of greater than 50 percent at a concentration that equals or is greater than 25 μM was represented as) |
| c1ccc2c(Nc3ccc4[nH]ncc4c3)nc(-c3cncs3)nc2c1 [Compound 77] | + (cell loss of greater than 50 percent at a concentration that equals or is greater than 25 μM was represented as) |
| C=CCn1c(=O)c2ccc(C(=O)NCc3ccccc3)cc2n(Cc2ccc(C)cc2)c1=O [Compound 233] | + (cell loss of greater than 50 percent at a concentration that equals or is greater than 25 μM was represented as) |
| Fc1cc(Nc2nc(-c3cncs3)nc3ccccc23)cc2cc[nH]c12 [Compound 395] | + (cell loss of greater than 50 percent at a concentration that equals or is greater than 25 μM was represented as) |
| Fc1cc(Nc2nc(-c3ccncc3)nc3ncccc23)cc2cc[nH]c12 [Compound 157] | ++ (cell loss of greater than 50 percent at a concentration less than 25 μM and greater than 1 μM was represented as) |
| COc1ccc(-c2nc(Nc3ccc(C)c(F)c3)c3ccccc3n2)cc1 [Compound 163] | + (cell loss of greater than 50 percent at a concentration that equals or is greater than 25 μM was represented as) |
| Fc1cccc(Nc2nc(-c3cncnc3)nc3ccccc23)c1 [Compound 8] | + (cell loss of greater than 50 percent at a concentration that equals or is greater than 25 μM was represented as) |
| CCc1nc2ccc(Nc3nc(-c4ccncc4)nc4ccccc34)cc2s1 [Compound 90] | + (cell loss of greater than 50 percent at a concentration that equals or is greater than 25 μM was represented as) |
| Cn1ccc2ccc(Nc3nc(-c4ccncc4)nc4ccccc34)cc21 [Compound 32] | +++ (cell loss of greater than 50 percent at a concentration that equals or is less than 1 μM was represented as “+++.”) |
| c1ccc2c(NC3CCN(C4CC4)CC3)nc(-c3ccncc3)nc2c1 [Compound 175] | + (cell loss of greater than 50 percent at a concentration that equals or is greater than 25 μM was represented as) |
| c1ccc2c(NC3CCCCC3)nc(-c3ccncc3)nc2c1 [Compound 170] | + (cell loss of greater than 50 percent at a concentration that equals or is greater than 25 μM was represented as) |
| c1cnc2cc(-c3ccncc3)nc(Nc3ccc4nc(C5CC5)sc4c3)c2c1 [Compound 241] | + (cell loss of greater than 50 percent at a concentration that equals or is greater than 25 μM was represented as) |
| COc1ccc2nc(-c3ccncc3)nc(Nc3ccc4[nH]ccc4c3)c2c1 [Compound 113] | ++ (cell loss of greater than 50 percent at a concentration less than 25 μM and greater than 1 μM was represented as) |
| CN(C)CCn1c(=O)n(-c2ccccc2)c(=O)c2ccccc21 [Compound 228] | + (cell loss of greater than 50 percent at a concentration that equals or is greater than 25 μM was represented as) |
| COc1cccc(Nc2nc(-c3ccncc3)nc3ccccc23)c1 [Compound 190] | + (cell loss of greater than 50 percent at a concentration that equals or is greater than 25 μM was represented as) |
| CCc1cc(C)cc(Nc2nc(-c3ccncc3)nc3ccccc23)c1 [Compound 22] | + (cell loss of greater than 50 percent at a concentration that equals or is greater than 25 μM was represented as) |
| Cc1cc(F)cc(Nc2nc(-c3ccncc3)nc3ccccc23)c1 [Compound 1] | + (cell loss of greater than 50 percent at a concentration that equals or is greater than 25 μM was represented as) |
| CS(=O)(=O)CCCNc1nc(-c2ccncc2)nc2ccccc12 [Compound 172] | + (cell loss of greater than 50 percent at a concentration that equals or is greater than 25 μM was represented as) |
| c1cnc2nc(-c3ccncc3)nc(Nc3ccc4cnsc4c3)c2c1 [Compound 136] | + (cell loss of greater than 50 percent at a concentration that equals or is greater than 25 μM was represented as) |
| CCN(c1ccc2[nH]ccc2c1)c1nc(-c2ccncc2)nc2ccccc12 [Compound 72] | +++ (cell loss of greater than 50 percent at a concentration that equals or is less than 1 μM was represented as “+++.”) |
| COc1ccc2nc(-c3ccncc3)nc(Nc3ccc4nc(C(C)C)sc4c3)c2c1 [Compound 352] | + (cell loss of greater than 50 percent at a concentration that equals or is greater than 25 μM was represented as) |
| Cc1nc2cc(Cl)c(Nc3nc(-c4ccncc4)nc4ncccc34)cc2o1 [Compound 145] | + (cell loss of greater than 50 percent at a concentration that equals or is greater than 25 μM was represented as) |

test system: TFEB; experiment: High content screen measuring TFEB nuclear accumulation (TFEB nuclear/cytosol ratio) in BEAS-2B cells stably expressing TFEB-EGFP; type: cell-based, human; settings: 18 hours incubation
In short: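 BEAS-2B cells stably expressing TFEB-EGFP (~2300–2500 per well) pre-incubated 8 hours, then exposed to serially diluted compounds (DMEM low glucose, 2% FBS) for 18 hours, PFA-fixed and DAPI-stained. Imaged nuclear (DAPI mask) vs cytosolic (expanded mask) TFEB-GFP; activity = minimal concentration raising nuclear/cytosol ratio by 25%.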

| SMILES | efficacy (minimal compound concentration needed to increase TFEB nuclear/cytosol ratio by 25%) |
| --- | --- |
| CCc1nc2ccc(Nc3nc(-c4ccncc4)nc4ccc(OC)cc34)cc2s1 [Compound 149] | ++ (“++” equals between ≤25 μM and >1 μM) |
| Cc1nc2cc(Nc3nc(-c4ccncc4)nc4ccccc34)ccc2o1 [Compound 37] | ++ (“++” equals between ≤25 μM and >1 μM) |
| c1ccc2c(Nc3ccc4[nH]ncc4c3)nc(C3CCNCC3)nc2c1 [Compound 76] | + (“+” equals >25 μM) |
| Cc1cc2cc(Nc3nc(-c4ccncc4)nc4ccccc34)ccc2[nH]1 [Compound 62] | +++ (“+++” equals ≤1 μM) |
| c1cnc2c(Nc3ccc4[nH]ccc4c3)nc(-c3ccncc3)nc2c1 [Compound 83] | ++ (“++” equals between ≤25 μM and >1 μM) |
| COc1ccc2nc(-c3ccncc3)nc(Nc3ccc4nc(C(C)C)sc4c3)c2c1 [Compound 364] | + (“+” equals >25 μM) |
| c1cnc2nc(-c3ccncc3)nc(Nc3ccc4[nH]ncc4c3)c2c1 [Compound 80] | ++ (“++” equals between ≤25 μM and >1 μM) |
| CC(C)c1nc2ccc(Nc3nc(-c4ccncc4)nc4ccncc34)cc2s1 [Compound 120] | + (“+” equals >25 μM) |
| c1cnc2cc(-c3ccncc3)nc(Nc3ccc4nc(C5CCC5)sc4c3)c2c1 [Compound 402] | +++ (“+++” equals ≤1 μM) |
| c1ccc2c(Nc3ccc4[nH]ncc4c3)nc(-c3cncs3)nc2c1 [Compound 77] | +++ (“+++” equals ≤1 μM) |
| C=CCn1c(=O)c2ccc(C(=O)NCc3ccccc3)cc2n(Cc2ccc(C)cc2)c1=O [Compound 233] | + (“+” equals >25 μM) |
| Fc1cc(Nc2nc(-c3cncs3)nc3ccccc23)cc2cc[nH]c12 [Compound 395] | +++ (“+++” equals ≤1 μM) |
| Fc1cc(Nc2nc(-c3ccncc3)nc3ncccc23)cc2cc[nH]c12 [Compound 157] | +++ (“+++” equals ≤1 μM) |
| COc1ccc(-c2nc(Nc3ccc(C)c(F)c3)c3ccccc3n2)cc1 [Compound 163] | + (“+” equals >25 μM) |
| Fc1cccc(Nc2nc(-c3cncnc3)nc3ccccc23)c1 [Compound 8] | + (“+” equals >25 μM) |
| CCc1nc2ccc(Nc3nc(-c4ccncc4)nc4ccccc34)cc2s1 [Compound 90] | +++ (“+++” equals ≤1 μM) |
| Cn1ccc2ccc(Nc3nc(-c4ccncc4)nc4ccccc34)cc21 [Compound 32] | +++ (“+++” equals ≤1 μM) |
| c1ccc2c(NC3CCN(C4CC4)CC3)nc(-c3ccncc3)nc2c1 [Compound 175] | + (“+” equals >25 μM) |
| c1ccc2c(NC3CCCCC3)nc(-c3ccncc3)nc2c1 [Compound 170] | + (“+” equals >25 μM) |
| c1cnc2cc(-c3ccncc3)nc(Nc3ccc4nc(C5CC5)sc4c3)c2c1 [Compound 241] | +++ (“+++” equals ≤1 μM) |
| COc1ccc2nc(-c3ccncc3)nc(Nc3ccc4[nH]ccc4c3)c2c1 [Compound 113] | +++ (“+++” equals ≤1 μM) |
| CN(C)CCn1c(=O)n(-c2ccccc2)c(=O)c2ccccc21 [Compound 228] | + (“+” equals >25 μM) |
| COc1cccc(Nc2nc(-c3ccncc3)nc3ccccc23)c1 [Compound 190] | ++ (“++” equals between ≤25 μM and >1 μM) |
| CCc1cc(C)cc(Nc2nc(-c3ccncc3)nc3ccccc23)c1 [Compound 22] | + (“+” equals >25 μM) |
| Cc1cc(F)cc(Nc2nc(-c3ccncc3)nc3ccccc23)c1 [Compound 1] | +++ (“+++” equals ≤1 μM) |
| CS(=O)(=O)CCCNc1nc(-c2ccncc2)nc2ccccc12 [Compound 172] | + (“+” equals >25 μM) |
| c1cnc2nc(-c3ccncc3)nc(Nc3ccc4cnsc4c3)c2c1 [Compound 136] | +++ (“+++” equals ≤1 μM) |
| CCN(c1ccc2[nH]ccc2c1)c1nc(-c2ccncc2)nc2ccccc12 [Compound 72] | +++ (“+++” equals ≤1 μM) |
| COc1ccc2nc(-c3ccncc3)nc(Nc3ccc4nc(C(C)C)sc4c3)c2c1 [Compound 352] | ++ (“++” equals between ≤25 μM and >1 μM) |
| Cc1nc2cc(Cl)c(Nc3nc(-c4ccncc4)nc4ncccc34)cc2o1 [Compound 145] | +++ (“+++” equals ≤1 μM) |
